# Measurements published in patent publication US9802982B2, “Peptide and uses thereof” (Tunghai University, priority 2014, dated 2017).
# Where two headings read alike, the source gives them in different places. Where a SMILES comes first, the peptide text is derived from it. Where no end group is shown, it is not given here. [ ]: non-standard residue; d: D form. NMeW = CN[C@@H](Cc1c[nH]c2ccccc12)C(=O)O; NMeR = CN[C@@H](CCCNC(=N)N)C(=O)O
# Assays:
# Assay type in all cases: cell-based
# [1] = test system: Pseudomonas aeruginosa (ATCC27853)
# Method: (§1) Three bacteria strains, Escherichia coli (ATCC 25922), Staphylococcus aureus (ATCC25923), and Pseudomon asaeruginosa (ATCC27853) were brought from the Food Industry Research and Development Institute, Hsinchu, Taiwan.
# (§2) Each of the strain (0.1-0.2 mL) was inoculated on an agar gel medium (Merck, Whitehouse, Station, N.J., USA) and isolated into single colony by streak plate method. Each of the strain was spread evenly by a sterile L-shaped glass rod and incubated overnight. After that, the single colony on each agar gel medium was transferred to liquid LB medium (Merck, Whitehouse, Station, N.J., USA) and incubated at 37° C. in an incubator.
# (§3) Each bacteria strain from example 6 was incubated to its mid-log phase at 37° C. in 2 mL Lysogeny broth (LB) in an incubator, wherein the mid-log phase of Escherichia coli is 4 hours, the mid-log phase of Staphylococcus aureus is 6 hours, and the mid-log phase of Pseudomonas aeruginosa is 8 hours. According to 0.5 McFarland Standard, the number of bacteria in a broth is 1×10^8 CFU/mL when the OD595 is 0.08-0.09. […] And then, the number of bacteria in each broth was diluted from 1×10^8 CFU/mL to […]. Finally, each broth has bacterial number of 5×10^5 CFU/mL in Mueller Hinton broth (MHB).
# (§4) 199 μL of each of the foresaid diluted broth was respectively placed into a 96 well plate, and 1 μL of each peptide from example 5 was added into each well to incubate at 37° C. in an incubator for 16 hours. The OD595 of the coculture of each broth and each peptide was measured by a microplate spectrophotometer. In addition, the bacterial broth without the peptide served as positive control (PC), and the free broth MHB culture medium served as negative control (NC). The minimum inhibitory concentration (MIC90) of each peptide against each bacteria was measured according to the following equation, wherein A is the absorbance. MIC90≦[(Apeptide−ANC)(APC−ANC)]
# [2] = test system: Escherichia coli (ATCC 25922)
# Method: as §1, §2, §3, §4
# [3] = test system: Staphylococcus aureus (ATCC25923)
# Method: as §1, §2, §3, §4
# human red blood cells = test: Hemolysis assay
# Method: 1-3 mL human blood was centrifuged at 3000 rpm, 4° C. for 10 minutes. The supernatant was discarded. The remaining was washed with cold phosphate buffer saline (PBS) and centrifuged at 3000 rpm, 4° C. for 1 minute. The supernatant was discarded. The remaining red blood cells were washed and diluted as 2% red blood cell solution with cold PBS.
# A mixture of 100 μL red blood cell solution and 100 μL PBS was served as a negative control. A mixture of 100 μL red blood cells solution and 100 μL 0.2% Triton X-100 was served as a positive control. The solution of peptide 1, peptide 2, peptide 3, peptide 5, and peptide 6 were respectively mixed with red blood cell solution with the same volume and incubated at 37° C. for 1 hour. After incubation, the mixture was centrifuged at 3000 rpm, 4° C. for 10 minutes. Each of the supernatant was collected to measure the absorbance at wavelength of 405 nm by an ELISA plate reader. The hemolysis of each peptide was calculated according to the following equation, wherein Abs represents the absorbance. [(Abspeptide−AbsPBS)/(AbsTriton X-100−AbsPBS)]×100
# [4] = test system: Pseudomonas aeruginosa (ATCC27853); remark: listed apart in the source
# Method: as §1, §2, §3, §4
# (§5) In addition, to measure the minimum bactericidal concentration (MBC), 1 μL of each broth cocultured with the peptide was sprayed on a flat plate medium at 37° C. in an incubator for 24 hours. If the incubation result has no bacteria, the concentration of the reagent is MBC.
# [5] = test system: Escherichia coli (ATCC 25922); remark: listed apart in the source
# Method: as §1, §2, §3, §4, §5
# [6] = test system: Staphylococcus aureus (ATCC25923); remark: listed apart in the source
# Method: as §1, §2, §3, §4, §5
# [7] = 5×10^5 CFU/mL in MHB, 37° C., 16 hours, OD595
# [8] = coculture plated on flat plate medium, 37° C., 24 hours, no bacteria
Molecule,"Minimum inhibitory concentration (MIC90) Pseudomonas aeruginosa ([1]; ATCC27853, 16 h) [µM]","Minimum inhibitory concentration (MIC90) Escherichia coli ([2]; ATCC 25922, 16 h) [µM]","Minimum inhibitory concentration (MIC90) Staphylococcus aureus ([3]; ATCC25923, 16 h) [µM]","Hemolysis (%) (human red blood cells; red cells of human, 1 h)","Minimum bactericidal concentration (MBC99.9) Pseudomonas aeruginosa ([4]; ATCC27853, 24 h) [µM]","Minimum bactericidal concentration (MBC99.9) Escherichia coli ([5]; ATCC 25922, 24 h) [µM]","Minimum bactericidal concentration (MBC99.9) Staphylococcus aureus ([6]; ATCC25923, 24 h) [µM]",other results
"CC(C)C[C@H](NC(=O)[C@H](Cc1c[nH]c2ccccc12)NC(=O)[C@@H](N)CCCCN)C(=O)N[C@@H](CCCNC(=N)N)C(=O)N[C@@H](CCCNC(=N)N)C(=O)N[C@H](C(=O)N(C)[C@@H](Cc1c[nH]c2ccccc12)C(=O)N[C@@H](CCCNC(=N)N)C(=O)N[C@@H](Cc1c[nH]c2ccccc12)C(=O)N[C@@H](Cc1c[nH]c2ccccc12)C(=O)N[C@@H](CCCNC(=N)N)C(N)=O)C(C)C [peptide 1, KWLRRVMeWRWWR] (H-KWLRRV[NMeW]RWWR-NH2)",10,5,5,20.1,10,20,40,"Hemolysis, comparison in words (human red blood cells): significantly lower than the peptide 5"
"CC(C)C[C@H](NC(=O)[C@H](CCCNC(=N)N)NC(=O)[C@@H](N)CCCCN)C(=O)N[C@@H](CCCNC(=N)N)C(=O)N[C@@H](CCCNC(=N)N)C(=O)N[C@H](C(=O)N(C)[C@@H](Cc1c[nH]c2ccccc12)C(=O)N[C@@H](CCCNC(=N)N)C(=O)N[C@@H](Cc1c[nH]c2ccccc12)C(=O)N[C@@H](Cc1c[nH]c2ccccc12)C(=O)N[C@@H](CCCNC(=N)N)C(N)=O)C(C)C [peptide 4, KRLRRVMeWRWWR] (H-KRLRRV[NMeW]RWWR-NH2; N-terminus assumed)",20,20,10,,20,20,10,
"CC(C)C[C@H](NC(=O)[C@H](Cc1c[nH]c2ccccc12)NC(=O)[C@@H](N)CCCCN)C(=O)N[C@@H](CCCNC(=N)N)C(=O)N(C)[C@@H](CCCNC(=N)N)C(=O)N[C@H](C(=O)N[C@@H](Cc1c[nH]c2ccccc12)C(=O)N[C@@H](CCCNC(=N)N)C(=O)N[C@@H](Cc1c[nH]c2ccccc12)C(=O)N[C@@H](Cc1c[nH]c2ccccc12)C(=O)N[C@@H](CCCNC(=N)N)C(N)=O)C(C)C [peptide 5, KWLRMeRVWRWWR] (H-KWLR[NMeR]VWRWWR-NH2)",,,,44.9,,,,
"KWLRRPWRRWR-NH2 [peptide 2, KWLRRPWRRWR]",,,,,,,,"Minimum inhibitory concentration (MIC90) Pseudomonas aeruginosa [1, 7]: 5 µM; Minimum inhibitory concentration (MIC90) Escherichia coli [2, 7]: 2.5 µM; Minimum inhibitory concentration (MIC90) Staphylococcus aureus [3, 7]: 2.5 µM; Hemolysis, comparison in words (human red blood cells; comparison among the peptides of Table 4): the lowest; Minimum bactericidal concentration (MBC99.9) Pseudomonas aeruginosa [4, 8]: 20 µM; Minimum bactericidal concentration (MBC99.9) Escherichia coli [5, 8]: 10 µM; Minimum bactericidal concentration (MBC99.9) Staphylococcus aureus [6, 8]: 5 µM"
"KWLRRVWRWWR-NH2 [peptide 6, KWLRRVWRWWR]",5,5,5,70.7,5,5,10,
"KWLRWVRRRWW-NH2 [peptide 3, KWLRWVRRRWW]",5,2.5,2.5,3.4,20,10,5,"Hemolysis, comparison in words (human red blood cells): the lowest"
"Triton X-100 [Positive control, reference compound]",,,,,,,,Hemolysis (%) (human red blood cells): 100%
